Assay [1] deals with T1, GI.9 Vancouver P domain (P dimer) of VP1 (Norovirus Hu/GI/Vancouver730/2004/CAN, UniProt F2XMU3).
T1 construct: P (protruding) domain, residues 229-540 of VP1; N11-SUMO fusion from E. coli cell-free system or E. coli KRX, tag cleaved with SUMO protease; homodimer, site formed by both protomers (P-loop from the other protomer)
The experiment in a line: X-ray crystal structure (soak), […] A. In kind it is binding. The settings on record: crystal in 0.1 M bicine pH 9.0, 1.5-1.7 M MgCl2; soaked with 100 mM ligand overnight at 25 °C; HBGA site at P dimer interface.

Assay [2] concerns the target T1, GI.9 Vancouver P domain (P dimer) of VP1. The assay is described as follows: X-ray crystal structure (soak), […] A. The format is binding. The settings on record: crystal in 0.1 M bicine pH 9.0, 1.5-1.7 M MgCl2; soaked with 100 mM ligand overnight at 25 °C; HBGA site at P dimer interface. This is another data set of the same source.
Assay [3] addresses P domain of the VP1 capsid protein of the GI.9 norovirus Vancouver 730 strain (norovirus GI.9, Vancouver 730 strain). The assay is described as follows: SEC; size-exclusion chromatogram of the synthesized P domain proteins; data not shown. A general note: Size exclusion chromatography separates by hydrodynamic size, large species first.

Broadly, the stoichiometry N is the number of molecules, sites or subunits per partner or assembly.

With `CC(=O)N[C@H]1C(O)O[C@H](CO)[C@@H](O[C@@H]2O[C@@H](C)[C@@H](O)[C@@H](O)[C@@H]2O)[C@@H]1O[C@@H]1O[C@H](CO)[C@H](O)[C@H](O)[C@H]1O[C@@H]1O[C@@H](C)[C@@H](O)[C@@H](O)[C@@H]1O` (stereo partly drawn) [Lewis b tetrasaccharide], the “X-ray crystal structure (soak), 2.40 A” value in assay [1] was “crystal structures of the P domains complexed with each of Lewis b tetrasaccharide and Lewis x”.

On to `CC(=O)N[C@H]1C(O)O[C@H](CO)[C@@H](O[C@@H]2O[C@H](CO)[C@H](O)[C@H](O)[C@H]2O)[C@@H]1O[C@@H]1O[C@@H](C)[C@@H](O)[C@@H](O)[C@@H]1O` (stereo partly drawn) [Lewis x trisaccharide], for which, in assay [2], the “X-ray crystal structure (soak), 2.26 A” value is “P domains complexed with each of Lewis b tetrasaccharide and Lewis x trisaccharide”.

In assay [3], “P domain of the VP1 capsid protein of the GI.9 norovirus Vancouver 730 strain (domain or fragment)” had a stoichiometry N of 2.

For the origin of these results see article PMC8886331, “Lewis fucose is a key moiety for the recognition of histo‐blood group antigens by GI.9 norovirus, as revealed by structural analysis” (FEBS Open Bio, 2022).
